Here are results for 30 molecules from patent US12012374B2, “Agonists of ROR GAMMAt” (BRISTOL-MYERS SQUIBB COMPANY, priority 2019, dated 2024).

The target of this experiment is T1, human RORgT (Homo sapiens, UniProt P51449).
T1 construct: expressed in transfected cells; host or cells: engineered Jurkat cells (Jurkat pEx/Gal/hRORγ CLBD/HYG pG5luc/blast)
T1 sequence (P51449 267-516): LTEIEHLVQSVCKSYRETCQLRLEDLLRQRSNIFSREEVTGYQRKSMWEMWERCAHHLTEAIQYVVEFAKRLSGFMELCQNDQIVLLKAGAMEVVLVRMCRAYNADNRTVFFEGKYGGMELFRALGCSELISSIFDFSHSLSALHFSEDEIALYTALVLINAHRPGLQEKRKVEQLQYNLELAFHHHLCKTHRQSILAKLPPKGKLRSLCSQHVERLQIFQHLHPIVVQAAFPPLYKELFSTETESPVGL
Nature of the experiment: RORgT Gal4 Luciferase Reporter Gene Assay. The format is cell-based. Particulars: engineered Jurkat cells overexpressing RORgT (LBD or full length) fused with Gal4 Luc reporter; 18 hours incubation. (In general: In a reporter assay the amount or activity of a reporter protein is the signal.)
The EC50 is the concentration needed to bring the measured effect to its halfway point. Read a high EC50 as lower potency in that assay. `O=C(C1CCS(=O)(=O)CC1)N1CC[C@](c2ccc(OCc3c(Cl)cccc3Cl)cc2)(S(=O)(=O)c2ccc(F)cc2)C1` [Example 36, 4-[(3R)-3-{4-[(2,6-dichlorophenyl)methoxy]phenyl}-3-(4-fluorobenzenesulfonyl)pyrrolidine-1-carbonyl]-1λ^6-thiane-1,1-dione] came in with a concentration giving a half-maximal response (EC50) of 17 nM.
For the molecule `O=C(N1CC[C@](c2ccc(OCc3c(F)cccc3C(F)(F)F)cc2)(S(=O)(=O)c2ccccc2)C1)C1(O)CCS(=O)(=O)CC1` [Example 40, 4-[(3R)-3-(benzenesulfonyl)-3-(4-{[2-fluoro-6-(trifluoromethyl)phenyl]methoxy}phenyl)pyrrolidine-1-carbonyl]-4-hydroxy-1λ^6-thiane-1,1-dione], the 50% effective concentration (EC50) is 18 nM.
`O=S(=O)(c1cccc(Cl)c1)C1(c2ccc(OCc3ccccc3)cc2)CCCC1` [Example 5, 1-(benzyloxy)-4-[1-(3-chlorobenzenesulfonyl)cyclopentyl]benzene] showed a 50% effective concentration (EC50) of 240 nM.
In the case of `O=S(=O)(c1ccc(Cl)cc1)C1(c2ccc(OCc3ccccc3)cc2)CCCC1` [Example 9, 1-(benzyloxy)-4-[1-(4-chlorobenzenesulfonyl)cyclopentyl]benzene] it was 212 nM; in that of `O=S(=O)(c1ccc(F)cc1)C1(c2ccc(OCCc3ccccc3)cc2)CCCC1` [Example 4, 1-[1-(4-fluorobenzenesulfonyl)cyclopentyl]-4-(2-phenylethoxy)benzene], 139 nM.
Turning to `O=C(O)[C@H]1CC[C@H](C(=O)N2CC[C@](c3ccc(OCc4c(F)cccc4C(F)(F)F)cc3)(S(=O)(=O)c3ccc(F)cc3)C2)CC1` [Example 42, (1r,4r)-4-[(3R)-3-(4-{[2-fluoro-6-(trifluoromethyl)phenyl]methoxy}phenyl)-3-(4-fluorobenzenesulfonyl)pyrrolidine-1-carbonyl]cyclohexane-1-carboxylic acid], the EC50 is 47 nM.
In the case of `O=C(O)[C@H]1CC[C@H](C(=O)N2CC[C@](c3ccc(OCc4c(F)cccc4C(F)(F)F)cc3)(S(=O)(=O)c3ccccc3)C2)CC1` [Example 41, (1r,4r)-4-[(3R)-3-(benzenesulfonyl)-3-(4-{[2-fluoro-6-(trifluoromethyl)phenyl]methoxy}phenyl)pyrrolidine-1-carbonyl]cyclohexane-1-carboxylic acid] it was 88 nM; in that of `O=C(C1CCS(=O)(=O)C1)N1CCC(c2ccc(OCc3ccccc3)cc2)(S(=O)(=O)c2ccc(F)cc2)C1` (stereo not drawn) [Example 19, 3-{3-[4-(benzyloxy)phenyl]-3-(4-fluorobenzenesulfonyl)pyrrolidine-1-carbonyl}-1λ^6-thiolane-1,1-dione], 672 nM; in that of `O=S(=O)(c1ccccc1)C1(c2ccc(OCC3CCCCC3)cc2)CCCC1` [Example 10, 1-[1-(benzenesulfonyl)cyclopentyl]-4-(cyclohexylmethoxy)benzene], 328 nM.
In the case of `O=C(O)[C@H]1CC[C@H](C(=O)N2CCC(c3ccc(OCc4c(Cl)cccc4Cl)cc3)(S(=O)(=O)c3ccccc3)C2)CC1` (stereo partly drawn) [Example 24, (1r,4r)-4-[3-(benzenesulfonyl)-3-{4-[(2,6-dichlorophenyl)methoxy]phenyl}pyrrolidine-1-carbonyl]cyclohexane-1-carboxylic acid] it was 552 nM.
For `O=C(C1CCS(=O)(=O)CC1)N1CC[C@](c2ccc(OCc3c(Cl)cccc3Cl)cc2)(S(=O)(=O)c2ccccc2)C1` [Example 33, 4-[(3R)-3-(benzenesulfonyl)-3-{4-[(2,6-dichlorophenyl)methoxy]phenyl}pyrrolidine-1-carbonyl]-1λ^6-thiane-1,1-dione] the value was 32 nM; for `O=S(=O)(c1ccccc1)C1(c2ccc(OCCC3CC3)cc2)CCCC1` [Example 14, 1-[1-(benzenesulfonyl)cyclopentyl]-4-(2-cyclopropylethoxy)benzene], 423 nM; for `O=C(C1CCS(=O)(=O)CC1)N1CCC(c2ccc(OCc3ccc(F)cc3Cl)cc2)(S(=O)(=O)c2ccccc2)C1` (stereo not drawn) [Example 31, 4-[3-(benzenesulfonyl)-3-{4-[(2-chloro-4-fluorophenyl)methoxy]phenyl}pyrrolidine-1-carbonyl]-1λ^6-thiane-1,1-dione], 343 nM.
Turning to `O=C(C1CCS(=O)(=O)CC1)N1CCC(c2ccc(OCc3ccccc3Cl)cc2)(S(=O)(=O)c2ccccc2)C1` (stereo not drawn) [Example 28, 4-[3-(benzenesulfonyl)-3-{4-[(2-chlorophenyl)methoxy]phenyl}pyrrolidine-1-carbonyl]-1λ^6-thiane-1,1-dione], it took 187 nM to reach a half-maximal effect (EC50).
In turn, `O=C1NC(=O)C(CC(=O)N2CCC(c3ccc(OCc4ccccc4)cc3)(S(=O)(=O)c3ccc(F)cc3)C2)S1` (stereo not drawn) [Example 20, 5-(2-{3-[4-(benzyloxy)phenyl]-3-(4-fluorobenzenesulfonyl)pyrrolidin-1-yl}-2-oxoethyl)-1,3-thiazolidine-2,4-dione] displayed a concentration for a half-maximal effect (EC50) of 810 nM.
The molecule `O=S(=O)(c1ccccc1)C1(c2ccc(OCc3cccc(F)c3)cc2)CCCC1` [Example 11, 1-[1-(benzenesulfonyl)cyclopentyl]-4-[(3-fluorophenyl)methoxy]benzene] gave an EC50 of 397 nM.
Molecule `O=S(=O)(c1ccccc1)C1(c2ccc(OCc3ccc(F)cc3)cc2)CCCC1` [Example 12, 1-[1-(benzenesulfonyl)cyclopentyl]-4-[(4-fluorophenyl)methoxy]benzene] gave an EC50 of 87 nM.
`O=C(C1CCS(=O)(=O)CC1)N1CCC(c2ccc(OCc3c(F)cccc3C(F)(F)F)cc2)(S(=O)(=O)c2ccccc2)C1` (stereo not drawn) [Example 30, 4-[3-(benzenesulfonyl)-3-(4-{[2-fluoro-6-(trifluoromethyl)phenyl]methoxy}phenyl)pyrrolidine-1-carbonyl]-1λ^6-thiane-1,1-dione] gave an EC50 of 28 nM.
On to `O=S(=O)(c1ccccc1)C1(c2ccc(OCc3ccccc3)cc2)CCCC1` [Example 6, 1-[1-(benzenesulfonyl)cyclopentyl]-4-(benzyloxy)benzene], for which a half-maximal effect (EC50) was put at 130 nM.
For `NC(=O)N1CCC(C(=O)N2CCC(c3ccc(OCc4c(Cl)cccc4Cl)cc3)(S(=O)(=O)c3ccccc3)C2)CC1` (stereo not drawn) [Example 25, 4-[3-(benzenesulfonyl)-3-{4-[(2,6-dichlorophenyl)methoxy]phenyl}pyrrolidine-1-carbonyl]piperidine-1-carboxamide] the value was 267 nM; for `O=C(Cn1ccnn1)N1CCC(c2ccc(OCc3ccccc3)cc2)(S(=O)(=O)c2ccc(F)cc2)C1` (stereo not drawn) [Example 17, 1-{3-[4-(benzyloxy)phenyl]-3-(4-fluorobenzenesulfonyl)pyrrolidin-1-yl}-2-(1H-1,2,3-triazol-1-yl)ethan-1-one], 526 nM.
In the case of `O=S(=O)(c1ccc(F)cc1)C1(c2ccc(OCc3ccccc3F)cc2)CCCC1` [Example 7, 1-[1-(4-fluorobenzenesulfonyl)cyclopentyl]-4-[(2-fluorophenyl)methoxy]benzene] it was 723 nM.
For `O=C(C1CCS(=O)(=O)CC1)N1CCC(c2ccc(OCc3ccccc3)cc2)(S(=O)(=O)c2cccc(C(F)(F)F)c2)C1` (stereo not drawn) [Example 21, 4-{3-[4-(benzyloxy)phenyl]-3-[3-(trifluoromethyl)benzenesulfonyl]pyrrolidine-1-carbonyl}-1λ^6-thiane-1,1-dione] the value was 462 nM.
The molecule `O=C(O)[C@H]1CC[C@H](C(=O)N2CC[C@](c3ccc(OCc4c(Cl)cccc4C(F)(F)F)cc3)(S(=O)(=O)c3ccc(F)cc3)C2)CC1` [Example 47, (1r,4r)-4-[(3R)-3-(4-{[2-chloro-6-(trifluoromethyl)phenyl]methoxy}phenyl)-3-(4-fluorobenzenesulfonyl)pyrrolidine-1-carbonyl]cyclohexane-1-carboxylic acid] had a concentration giving a half-maximal response (EC50) of 293 nM.
In the case of `O=C(O)[C@H]1CC[C@H](C(=O)N2CC[C@](c3ccc(OCc4c(Cl)cccc4Cl)cc3)(S(=O)(=O)c3ccccc3)C2)CC1` [Example 34, (1r,4r)-4-[(3R)-3-(benzenesulfonyl)-3-{4-[(2,6-dichlorophenyl)methoxy]phenyl}pyrrolidine-1-carbonyl]cyclohexane-1-carboxylic acid] it was 275 nM; in that of `O=S(=O)(c1cccc(C(F)(F)F)c1)C1(c2ccc(OCc3ccccc3)cc2)CCCC1` [Example 8, 1-(benzyloxy)-4-{1-[3-(trifluoromethyl)benzenesulfonyl]cyclopentyl}benzene], 382 nM.
In the case of `NC(=O)[C@H]1CC[C@H](C(=O)N2CC[C@](c3ccc(OCc4c(Cl)cccc4C(F)(F)F)cc3)(S(=O)(=O)c3ccc(F)cc3)C2)CC1` [Example 45, (1r,4r)-4-[(3R)-3-(4-{[2-chloro-6-(trifluoromethyl)phenyl]methoxy}phenyl)-3-(4-fluorobenzenesulfonyl)pyrrolidine-1-carbonyl]cyclohexane-1-carboxamide] it was 351 nM; in that of `O=C(N1CC[C@](c2ccc(OCc3c(Cl)cccc3C(F)(F)F)cc2)(S(=O)(=O)c2ccc(F)cc2)C1)C1(O)CCS(=O)(=O)CC1` [Example 46, 4-[(3R)-3-(4-{[2-chloro-6-(trifluoromethyl)phenyl]methoxy}phenyl)-3-(4-fluorobenzenesulfonyl)pyrrolidine-1-carbonyl]-4-hydroxy-1λ^6-thiane-1,1-dione], 42 nM.
For `O=C(C1CCS(=O)(=O)CC1)N1CCC(c2ccc(OCc3c(F)cccc3Cl)cc2)(S(=O)(=O)c2ccccc2)C1` (stereo not drawn) [Example 29, 4-[3-(benzenesulfonyl)-3-{4-[(2-chloro-6-fluorophenyl)methoxy]phenyl}pyrrolidine-1-carbonyl]-1λ^6-thiane-1,1-dione] the value was 39 nM; for `O=S(=O)(c1ccccc1)C1(c2ccc(OCc3ccccc3F)cc2)CCCC1` [Example 13, 1-[1-(benzenesulfonyl)cyclopentyl]-4-[(2-fluorophenyl)methoxy]benzene], 203 nM.
